Data reported in US20230184759A1, “IN VITRO METHOD FOR DETECTION OF INFECTIONS CAUSED BY PSEUDOMONAS AERUGINOSA” (CONSEJO SUPERIOR DE INVESTIGACIONES CIENTIFICAS (CSIC), priority 2020, published 2023).

What was measured:
Type in all cases: binding, rabbit
As385 = test: Competitive indirect ELISA for detection of PQS (As385, coating antigen I-5); conditions: for C.R. (Cross Reactivity): As385 (PQS) assay, relative to PQS
Protocol: (§1) The competitive assay was carried out in a 96 well Maxisorp flat-bottom plates, coated using 100 μL of a BSA conjugate solution in coating buffer pH=9.6. Then, plates were covered with adhesive plate sealer and incubated overnight at 4° C. The day after, plates were washed with PBST (4×300 μL) using the platewasher Biotek ELx405 HT. Sequentially, 50 μL of the corresponding sample solution, containing the analyte HHQ, PQS or HQNO (2 μM to 0.13 nM) or MH medium were added, followed by 50 μL addition of a fixed As dilution and left without agitation 30 min at RT. After another washing step, a 1/6000 dilution of goat AntiRabbit IgG-HRP in PBST was added and incubated 30 min at RT. After a final washing, 100 μL of a substrate solution was added and left 30 min at RT in the dark. Once the time was consumed, the enzymatic reaction was stopped by adding 50 μl of H2SO4 4M solution and the absorbances read at 450 nm. Absorbance data were plotted and analyzed using GraphPad software. The standard calibration curve was fitted to a four-parameter equation according to the following formula: […], where A is the maximum absorbance, B is the minimum absorbance, C is the concentration producing 50% of the maximal absorbance, and D is the slope at the inflection point of the sigmoid curve. Unless otherwise indicated, the data presented correspond to the average of at least two well replicates.
(§2) Regarding specificity studies, it was followed the experimental procedure for indirect competitive ELISA described above. It was assessed the avidity of As versus other quinolone effector molecules of the pqs system from P. aeruginosa. Each assay was run using HHQ, PQS and HQNO as analyte. Cross reactivity was calculated through the equation: […].

As389 = test: Competitive indirect ELISA for detection of HQNO (As389, coating antigen I-5); conditions: for C.R. (Cross Reactivity): As389 (HQNO) assay, relative to HQNO
Protocol: as §1, §2

As382 = test: Competitive indirect ELISA for detection of HHQ (As382, coating antigen I-7); conditions: for C.R. (Cross Reactivity): As382 (HHQ) assay, relative to HHQ
Protocol: as §1, §2

[1] = cross reactivity study, As385 (PQS) assay conditions
[2] = cross reactivity study, As389 (HQNO) assay conditions
[3] = cross reactivity study, As382 (HHQ) assay conditions

Structure (SMILES) | C.R. (Cross Reactivity) (As385) [%] | IC50 (As385; [1]) [nM] | C.R. (Cross Reactivity) (As389) [%] | IC50 (As389; [2]) [nM] | C.R. (Cross Reactivity) (As382) [%] | IC50 (As382; MH diluted 1/5, As382 dil. 1/64000, I-7 0.156 μg/mL) [nM] | IC50 (As382; PBST, As382 dil. 1/32000, I-7 0.313 μg/mL) [nM] | IC50 (As382; [3]) [nM] | IC50 (As389; MH diluted 1/5, As389 dil. 1/16000, I-5 0.250 μg/mL) [nM] | IC50 (As389; PBS at pH = 6.5, As389 dil. 1, I-5 0.250 μg/mL) [nM] | IC50 (As385; MH diluted 1/10, As385 dil. 1/64000, I-5 0.039 μg/mL) [nM] | IC50 (As385; PBS + 0.01% Tween + 0.1 mM EDTA, As385 dil. 1/48000, I-5 0.039 μg/mL) [nM]
CCCCCCCc1cc(=O)c2ccccc2[nH]1 [HHQ, 2-heptyl-4-quinolone] | 13.31 | 27.2 | 36.24 | 26.4 | 100.00 | 2.85 ± 0.296 | 4.59 ± 0.287 | 2.67 |  |  |  | 
CCCCCCCc1cc(=O)c2ccccc2n1O [HQNO, 2-heptyl-4-quinolone N-oxide] | 1.53 | 236 | 100.00 | 9.55 | 3.11 |  |  | 86 | 2.71 ± 0.035 | 4.2 ± 0.858 |  | 
CCCCCCCc1[nH]c2ccccc2c(=O)c1O [PQS, 2-heptyl-3-hydroxy-4-quinolone] | 100.00 | 3.62 | 5.41 | 177 | 7.16 |  |  | 37.3 |  |  | 6.05 ± 0.155 | 3.87 ± 0.529
